From ChEMBL document CHEMBL5360595, “Ligand-Directed Photodegradation of Interacting Proteins: Oxidative HER2/HER3 Heterodimer Degradation with a Lapatinib-Derived Photosensitizer” (J Med Chem, 2023)
Activity calls are given as the source filed them. The rule behind the calls is not given here.

Key:
[1] = tested on: MDA-MB-453; experiment: Photocytotoxicity against human MDA-MB-453 cells cultured as 3D spheroids assessed as reduction in cell viability incubated for 72 hrs by CCK-8 assay; assay type: functional, cell-based; conditions: MDA-MB-453, 72 h
[2] = Photocytotoxicity against human Lapatinib-resistant MDA-MB-453 cells assessed as reduction in cell viability by CCK-8 assay; assay type: functional, cell-based
[3] = tested on: MDA-MB-453; experiment: Induction of intracellular ROS generation in human MDA-MB-453 cells assessed as increase in green fluorescence signal at […] pretreated for 6 hrs followed by irradiation with 400 to 700 nm 100 mW/cm2 LED light for 10 min by DCFH2-DA staining based flow cytometry analysis; assay type: functional, cell-based; conditions: time 370.0 min
[4] = Photocytotoxicity against human Lapatinib-resistant MDA-MB-453 assessed as inhibition of cell growth under hypoxic condition incubated for 72 hrs in presence of LED light irradiation of 100 mW/cm2 at 400 to 700 nm by CCK-8 assay; assay type: functional, cell-based; conditions: Lapatinib-resistant MDA-MB-453, light or radiation study
[5] = molecular target: Mitogen-activated protein kinase; ERK1/ERK2 (Homo sapiens) (UniProt P27361+P28482); experiment: Inhibition of Erk1/2 phosphorylation in human MDA-MB-453 cells at 0.5 uM preincubated for 24 hrs followed by irradiation with 400 to 700 nm 100 mW/cm2 LED light for 10 min by Western blot analysis; assay type: cell-based; conditions: time 1450.0 min
[6] = molecular target: T1, ErbB-2/ErbB-3 heterodimer (Homo sapiens, UniProt P04626+P21860); experiment: Induction of HER2/HER3 degradation in human MDA-MB-453 cells assessed as HER2 degradation preincubated for 24 hrs followed by irradiation with 400 to 700 nm 100 mW/cm2 LED light for 10 min by Western blot analysis; assay type: cell-based
[7] = tested on: MDA-MB-453; experiment: Photocytotoxicity against human MDA-MB-453 cells cultured as 3D spheroids assessed as reduction in cell density at 0.5 to 10 uM incubated for 72 hrs by bright-field microscopic analysis; assay type: functional, cell-based; conditions: dose 0.5-10 µM
[8] = tested on: MDA-MB-453; experiment: Induction of apoptosis in human MDA-MB-453 cells assessed as increase in BAX/Bcl-2 ratio at 0.5 uM preincubated for 24 hrs followed by irradiation with 400 to 700 nm 100 mW/cm2 LED light for 10 min by Western blot analysis; assay type: functional, cell-based; conditions: time 1450.0 min
[9] = molecular target: Serine/threonine-protein kinase AKT (Homo sapiens) (UniProt P31751+Q9Y243+P31749); experiment: Inhibition of AKT phosphorylation in human MDA-MB-453 cells at 0.5 uM preincubated for 24 hrs followed by irradiation with 400 to 700 nm 100 mW/cm2 LED light for 10 min by Western blot analysis; assay type: cell-based; conditions: time 1450.0 min
[10] = tested on: MDA-MB-453; experiment: Photocytotoxicity against human MDA-MB-453 cells cultured as 3D spheroids assessed as increase in dead cells by measuring red fluorescence intensity pretreated with compound for 10 mins and measured after 72 hrs in presence of 400 to 700 nm […] LED light by calcein-AM/PI staining based fluorescence analysis; assay type: functional, cell-based; conditions: time 4330.0 min
[11] = molecular target: T1, ErbB-2/ErbB-3 heterodimer; experiment: Induction of HER2/HER3 degradation in human MDA-MB-453 cells assessed as decrease in HER2/HER3 heterodimer preincubated for 24 hrs followed by irradiation with 400 to 700 nm 100 mW/cm2 LED light for 10 min by Co-Immunoprecipitation Analysis; assay type: cell-based; conditions: time 1450.0 min
[12] = molecular target: Receptor tyrosine-protein kinase erbB-2 (Homo sapiens, UniProt P04626); experiment: Inhibition of HER2 (unknown origin) incubated for 40 mins by Kinase-Glo Max assay; assay type: cell-based, Sf9
[13] = tested on: MDA-MB-453; experiment: Photocytotoxicity against human MDA-MB-453 cells cultured as 3D spheroids assessed as reduction in diameter of tumor spheroid size at 0.5 to 10 uM pretreated with compound for 10 mins and measured after 72 hrs in presence of 400 to 700 nm 100 mW/cm2 LED light by bright-field microscopic analysis; assay type: functional, cell-based; conditions: dose 0.5-10 µM, time 4330.0 min
[14] = Photocytotoxicity against human Lapatinib-resistant MDA-MB-453 assessed as reduction in cell viability incubated for 72 hrs in presence of LED light irradiation of 100 mW/cm2 at 400 to 700 nm by CCK-8 assay; assay type: functional, cell-based; conditions: Lapatinib-resistant MDA-MB-453, light or radiation study
[15] = tested on: MDA-MB-453; experiment: Induction of apoptosis in human MDA-MB-453 cells assessed as increase in cleaved caspase-3 expression at 0.5 uM preincubated for 24 hrs followed by irradiation with 400 to 700 nm 100 mW/cm2 LED light for 10 min by Western blot analysis; assay type: functional, cell-based; conditions: time 1450.0 min
[16] = tested on: MDA-MB-453; experiment: Induction of intracellular ROS generation in human MDA-MB-453 cells assessed as increase in green fluorescence signal at 0.5 uM pretreated for 6 hrs followed by irradiation with 400 to 700 nm 100 mW/cm2 LED light for 10 min by DCFH2-DA staining based flow cytometry analysis; assay type: functional, cell-based; conditions: time 370.0 min
[17] = molecular target: T1, ErbB-2/ErbB-3 heterodimer; experiment: Induction of HER2/HER3 degradation in human MDA-MB-453 cells assessed as increase in HER2/HER3 heterodimer incubated for 24 hrs by Co-immunoprecipitation analysis; assay type: cell-based
[18] = tested on: MDA-MB-453; experiment: Induction of apoptosis in human MDA-MB-453 cells assessed as decrease in Bcl-2 expression at 0.5 uM preincubated for 24 hrs followed by irradiation with 400 to 700 nm 100 mW/cm2 LED light for 10 min by Western blot analysis; assay type: functional, cell-based; conditions: time 1450.0 min
[19] = molecular target: T1, ErbB-2/ErbB-3 heterodimer; experiment: Induction of HER2/HER3 degradation in human MDA-MB-453 cells assessed as HER3 degradation preincubated for 24 hrs followed by irradiation with 400 to 700 nm 100 mW/cm2 LED light for 10 min by Western blot analysis; assay type: cell-based
[20] = tested on: MDA-MB-453; experiment: Photocytotoxicity against human MDA-MB-453 cells cultured as 3D spheroids assessed as reduction in diameter of tumor spheroid size at 0.5 to 10 uM incubated for 72 hrs by bright-field microscopic analysis; assay type: functional, cell-based; conditions: dose 0.5-10 µM
[21] = tested on: MDA-MB-453; experiment: Photocytotoxicity against human MDA-MB-453 cells cultured as 3D spheroids assessed as reduction in cell viability pretreated for 10 mins and measured after 72 hrs in presence of 400 to 700 nm 100 mW/cm2 LED light by CCK-8 assay; assay type: functional, cell-based

Sequence of Receptor tyrosine-protein kinase erbB-2 (P04626 whole entry): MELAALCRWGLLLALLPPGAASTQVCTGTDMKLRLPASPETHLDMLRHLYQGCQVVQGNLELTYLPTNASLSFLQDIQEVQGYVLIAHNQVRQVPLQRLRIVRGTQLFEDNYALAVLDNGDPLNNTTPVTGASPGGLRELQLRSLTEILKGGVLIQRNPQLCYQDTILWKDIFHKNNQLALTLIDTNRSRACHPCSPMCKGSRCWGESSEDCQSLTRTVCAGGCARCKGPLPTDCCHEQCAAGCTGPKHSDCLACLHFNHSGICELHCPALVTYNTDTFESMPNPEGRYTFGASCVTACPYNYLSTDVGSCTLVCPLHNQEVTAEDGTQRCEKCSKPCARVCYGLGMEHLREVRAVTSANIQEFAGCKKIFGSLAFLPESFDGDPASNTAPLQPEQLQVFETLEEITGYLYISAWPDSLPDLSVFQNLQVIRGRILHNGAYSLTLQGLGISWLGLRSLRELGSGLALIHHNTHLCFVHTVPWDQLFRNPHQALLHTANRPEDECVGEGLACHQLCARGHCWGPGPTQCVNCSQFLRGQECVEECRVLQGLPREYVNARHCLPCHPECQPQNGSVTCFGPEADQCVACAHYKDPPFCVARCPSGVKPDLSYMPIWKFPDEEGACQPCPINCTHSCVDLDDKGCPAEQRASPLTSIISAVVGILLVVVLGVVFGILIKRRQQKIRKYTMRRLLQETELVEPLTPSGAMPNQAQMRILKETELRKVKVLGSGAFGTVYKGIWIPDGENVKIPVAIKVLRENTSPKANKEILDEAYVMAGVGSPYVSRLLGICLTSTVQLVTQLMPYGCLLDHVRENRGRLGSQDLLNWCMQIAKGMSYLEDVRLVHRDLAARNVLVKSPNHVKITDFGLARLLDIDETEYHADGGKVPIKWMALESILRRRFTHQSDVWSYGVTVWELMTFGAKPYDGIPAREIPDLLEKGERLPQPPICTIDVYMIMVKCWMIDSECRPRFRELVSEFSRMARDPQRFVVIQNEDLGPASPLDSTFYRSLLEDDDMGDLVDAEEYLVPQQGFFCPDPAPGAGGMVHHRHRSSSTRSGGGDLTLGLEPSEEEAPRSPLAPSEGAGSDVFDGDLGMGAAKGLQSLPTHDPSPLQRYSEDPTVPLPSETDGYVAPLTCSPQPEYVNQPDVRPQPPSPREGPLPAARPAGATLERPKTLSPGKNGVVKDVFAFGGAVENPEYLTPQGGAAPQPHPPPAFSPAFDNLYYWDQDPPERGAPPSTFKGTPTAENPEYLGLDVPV
T1 sequence (P04626 whole entry): as above
T1 sequence (P21860 whole entry): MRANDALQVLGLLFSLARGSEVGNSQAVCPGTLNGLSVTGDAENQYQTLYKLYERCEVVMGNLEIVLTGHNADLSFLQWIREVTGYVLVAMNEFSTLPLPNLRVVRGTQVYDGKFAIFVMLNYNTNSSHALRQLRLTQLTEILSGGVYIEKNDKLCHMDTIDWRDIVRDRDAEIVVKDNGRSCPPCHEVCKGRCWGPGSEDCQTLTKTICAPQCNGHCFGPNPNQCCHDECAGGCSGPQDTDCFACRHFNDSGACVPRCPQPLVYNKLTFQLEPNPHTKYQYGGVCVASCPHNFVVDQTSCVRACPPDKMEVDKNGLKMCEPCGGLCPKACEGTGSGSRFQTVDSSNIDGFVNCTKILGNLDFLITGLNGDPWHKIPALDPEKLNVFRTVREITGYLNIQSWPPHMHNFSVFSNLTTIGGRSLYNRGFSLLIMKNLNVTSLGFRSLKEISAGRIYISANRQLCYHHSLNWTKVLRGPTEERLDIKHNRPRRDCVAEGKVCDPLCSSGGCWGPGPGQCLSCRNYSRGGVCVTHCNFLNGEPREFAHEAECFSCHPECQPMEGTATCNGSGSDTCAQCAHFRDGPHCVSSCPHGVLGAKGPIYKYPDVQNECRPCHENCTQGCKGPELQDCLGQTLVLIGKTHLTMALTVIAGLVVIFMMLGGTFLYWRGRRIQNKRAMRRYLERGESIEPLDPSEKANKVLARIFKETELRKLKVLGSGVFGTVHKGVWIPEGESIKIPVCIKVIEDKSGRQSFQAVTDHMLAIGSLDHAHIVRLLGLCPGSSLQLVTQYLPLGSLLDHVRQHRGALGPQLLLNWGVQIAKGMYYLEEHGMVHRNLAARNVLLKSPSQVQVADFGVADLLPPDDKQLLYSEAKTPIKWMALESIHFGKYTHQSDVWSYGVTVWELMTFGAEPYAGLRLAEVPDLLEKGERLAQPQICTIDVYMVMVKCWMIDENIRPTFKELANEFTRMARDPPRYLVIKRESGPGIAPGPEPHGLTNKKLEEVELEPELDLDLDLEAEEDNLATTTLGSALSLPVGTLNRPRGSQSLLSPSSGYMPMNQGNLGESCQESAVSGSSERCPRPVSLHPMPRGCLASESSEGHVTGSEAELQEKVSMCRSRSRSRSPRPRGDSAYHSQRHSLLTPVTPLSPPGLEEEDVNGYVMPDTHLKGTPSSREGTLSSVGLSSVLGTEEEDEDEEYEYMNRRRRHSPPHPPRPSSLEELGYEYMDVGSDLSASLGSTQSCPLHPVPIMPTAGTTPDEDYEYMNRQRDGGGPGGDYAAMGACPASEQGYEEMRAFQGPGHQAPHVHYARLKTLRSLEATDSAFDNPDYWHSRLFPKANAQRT
Sequence of Mitogen-activated protein kinase; ERK1/ERK2 (Homo sapiens) (P27361 whole entry, looked up): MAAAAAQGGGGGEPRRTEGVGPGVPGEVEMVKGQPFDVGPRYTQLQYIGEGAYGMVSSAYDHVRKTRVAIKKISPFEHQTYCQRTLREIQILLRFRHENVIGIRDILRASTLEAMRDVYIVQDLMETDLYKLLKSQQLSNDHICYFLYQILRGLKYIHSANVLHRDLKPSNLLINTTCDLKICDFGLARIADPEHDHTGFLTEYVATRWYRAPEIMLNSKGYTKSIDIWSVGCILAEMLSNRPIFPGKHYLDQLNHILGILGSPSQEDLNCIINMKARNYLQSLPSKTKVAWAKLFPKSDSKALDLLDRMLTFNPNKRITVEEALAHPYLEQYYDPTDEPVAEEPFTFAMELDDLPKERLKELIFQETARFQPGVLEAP
Sequence of Mitogen-activated protein kinase; ERK1/ERK2 (Homo sapiens) (P28482 whole entry, looked up): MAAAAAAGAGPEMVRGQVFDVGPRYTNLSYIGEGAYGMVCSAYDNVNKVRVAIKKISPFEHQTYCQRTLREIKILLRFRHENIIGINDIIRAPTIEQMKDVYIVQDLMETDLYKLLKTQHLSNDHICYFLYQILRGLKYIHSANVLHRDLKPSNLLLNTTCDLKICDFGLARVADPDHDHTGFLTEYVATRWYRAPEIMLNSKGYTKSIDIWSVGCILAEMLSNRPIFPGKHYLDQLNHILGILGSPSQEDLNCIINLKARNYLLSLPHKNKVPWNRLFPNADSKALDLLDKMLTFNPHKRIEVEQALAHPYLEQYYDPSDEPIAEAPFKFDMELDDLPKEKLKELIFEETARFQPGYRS

CS(=O)(=O)CCNCc1ccc(-c2ccc3ncnc(Nc4ccc(OCc5cccc(F)c5)c(Cl)c4)c3c2)o1 [LAPATINIB]
IC50 [1]: > 20000 nM
IC50 [2]: > 5000 nM

O=S(=O)(O)c1cc(O)c(O)c(S(=O)(=O)O)c1
Activity [3]: Active

CC[n+]1c(/C=C/c2ccc(-c3ccc4ncnc(Nc5ccc(OCc6cccc(F)c6)c(Cl)c5)c4c3)s2)sc2ccccc21
IC50 [4]: 585 nM
IC50 [1]: > 20000 nM
inhibition [5]: Active
DC50 [6]: 520 nM
Activity ([6]; time 1450.0 min): Dose-Dependent Effect
Activity [7]: inactive
Activity [8]: Active
inhibition [9]: Active
Activity [10]: Active
Activity [11]: Active
IC50 [12]: 105 nM
Activity [13]: Active
IC50 [14]: 226 nM
Activity [15]: Active
Activity [16]: Active
Activity [17]: inactive
Activity [18]: Active
DC50 [19]: 584 nM
Activity [20]: inactive
IC50 [21]: 2130 nM

CC[n+]1c(/C=C/c2ccc(-c3ccc4ncnc(Nc5ccc(OCc6cccc(F)c6)c(Cl)c5)c4c3)o2)sc2ccccc21
IC50 [12]: 50 nM
IC50 [14]: 1560 nM
